Test results reported in US20260053811A1, “METHODS OF TREATING HYPERTENSION IN OBESE SUBJECTS” (Mineralys Therapeutics, Inc., priority 2022, published 2026).

Test system: hypertensive subjects
Assay: Seated automated office blood pressure (AOBP) in randomized, placebo-controlled, dose-ranging study
Format: in vivo, human
Design: Difference from placebo in change in blood pressure: unit not given here
Method: A randomized, double-blinded, placebo-controlled, dose-ranging, multicenter study was conducted to evaluate the effect of orally administered Compound A HBr on blood pressure for the treatment of hypertension in male and female subjects ≥18 years of age.
The study consists of two parts. For enrollment into Part 1 of the study, a subject's value of plasma renin activity (PRA) must be ≤1 ng/mL/h based on morning measurement. If the value of PRA >1 ng/mL/h based on morning measurement, then subjects may be eligible to enter Part 2 of the study.
For Part 1, 163 enrolled subjects ≥18 years of age were randomized into 6 equal treatment groups (1:1:1:1:1:1) to 12.5 mg BID, 25 mg BID, 12.5 mg QD, 50 mg QD, 100 mg QD, or placebo. After a review of interim clinical data, the 2 lowest dose levels (12.5 mg QD and 12.5 mg BID) were stopped for future randomization due to a lack of consistent meaningful reduction of blood pressure, but the patients randomized to that point remained in the study through completion. Thus, after the review of interim clinical data, subjects were randomized into 4 equal treatment groups (1:1:1:1) to 25 mg BID, 50 mg QD, 100 mg QD, or placebo.
For Part 2, 36 enrolled subjects ≥18 years of age were randomized (5:1) to either 100 mg QD Compound A HBr or placebo such that the Compound A HBr treatment group consisted of approximately 30 subjects and the placebo treatment group will consist of approximately 6 subjects.
Subjects orally administered the assigned study drug (Compound A HBr or placebo) according to the assigned dosing regimen for 8 weeks beginning on Study Day 1. All subjects in Part 1 (regardless of dosing group) received BID dosing to preserve the integrity of the blind; active drug is administered as the morning dose for all QD dose groups. Subjects returned to the research facility or were seen by the clinical investigator or approved home health care professional at the end of Study Weeks 1, 2, 3, 4, 5, 6, 7, and 8 (±2 days) for protocol-defined efficacy and safety assessments and procedures, assessment of adverse events (AEs), and confirmation of compliance with study drug usage. Subjects also completed a telephone visit and blood pressure (BP) check at home approximately 3 days post last dose of study drug. Subjects attended up to 14 full clinic visits, including a pre-Screening visit, a Screening/start of Placebo Run-in visit, a second visit during Placebo Run-in, a clinic visit to initiate the ABPM procedure, a Randomization visit, 8 weekly visits during double-blind treatment, and an end-of-study visit scheduled 4 weeks after the last study treatment for final efficacy and safety assessments.
An automated oscillometric sphygmomanometer device was used to measure the subjects' systolic and diastolic blood pressure in office after approximately 5 minutes of rest in the seated position.
The primary endpoint is the change in office-measured (mean of last 2 of 5 unattended measurements using an automated oscillometric sphygmomanometer device after approximately 5 minutes of rest in the seated position) systolic blood pressure (SBP) from baseline to the end of Study Week 8.
Secondary endpoints of this study were: • (a) Change in 24-hour ambulatory blood pressure monitoring (ABPM) parameters (systolic and diastolic) from baseline to the end of Study Week 7. • (b) Change in office-measured SBP from baseline to the end of Study Weeks 1, 2, 3, 4, 5, 6, and 7. • (c) Change in office-measured diastolic blood pressure (DBP) from baseline to the end of Study Weeks 1, 2, 3, 4, 5, 6, 7, and 8. • (d) Proportion of subjects who achieve office-measured BP of ≤130/80 mm Hg by the end of Study Week 8.

[1] = 12.5 mg QD, Week 1, Part 1, FAS
[2] = 12.5 mg QD, Week 2, Part 1, FAS
[3] = 12.5 mg QD, Week 3, Part 1, FAS
[4] = 12.5 mg QD, Week 4, Part 1, FAS
[5] = 12.5 mg QD, Week 5, Part 1, FAS
[6] = 12.5 mg QD, Week 6, Part 1, FAS
[7] = 12.5 mg QD, Week 7, Part 1, FAS
[8] = 12.5 mg QD, Week 8, Part 1, FAS

CC(=O)N[C@H]1CC[C@H](NC(=O)CN2CCN(c3nncc(-c4ccc(C)cc4)n3)CC2)CC1 [Compound A HBr]
Difference from placebo in change in blood pressure (12.5 mg QD, BMI >30): −2.5
Difference from placebo in change in blood pressure (12.5 mg QD, Baseline BPsys Low tertile): −10.7
Difference from placebo in change in blood pressure (12.5 mg QD, Thiazide No): 2.6
Seated AOBP DBP change from baseline (CFB), Mean (SD) [1]: 2.87 (12.31) mmHg
Seated AOBP DBP, Mean (SD) [1]: 85.26 (13.88) mmHg
Seated AOBP SBP change from baseline (CFB), Mean (SD) [1]: −5.65 (13.96) mmHg
Seated AOBP SBP, Mean (SD) [1]: 141.43 (15.98) mmHg
Seated AOBP DBP change from baseline (CFB), Mean (SD) [2]: 0.68 (8.89) mmHg
Seated AOBP DBP, Mean (SD) [2]: 81.23 (9.21) mmHg
Seated AOBP SBP change from baseline (CFB), Mean (SD) [2]: −1.86 (16.36) mmHg
Seated AOBP SBP, Mean (SD) [2]: 143.73 (17.32) mmHg
Seated AOBP DBP change from baseline (CFB), Mean (SD) [3]: −1.20 (9.13) mmHg
Seated AOBP DBP, Mean (SD) [3]: 81.80 (13.73) mmHg
Seated AOBP SBP change from baseline (CFB), Mean (SD) [3]: −4.15 (13.14) mmHg
Seated AOBP SBP, Mean (SD) [3]: 142.80 (18.14) mmHg
LSM Δ with Placebo, seated AOBP DBP (MMRM) [4]: −1.96 mmHg
Modelled (MMRM) LSM (SEM) change from baseline, seated AOBP DBP [4]: −2.50 (1.60) mmHg
Seated AOBP DBP change from baseline (CFB), Mean (SD) [4]: −1.80 (9.84) mmHg
Seated AOBP DBP, Mean (SD) [4]: 81.20 (14.03) mmHg
Seated AOBP SBP change from baseline (CFB), Mean (SD) [4]: −3.95 (15.74) mmHg
Seated AOBP SBP, Mean (SD) [4]: 143.00 (18.03) mmHg
Seated AOBP DBP change from baseline (CFB), Mean (SD) [5]: 0.82 (14.46) mmHg
Seated AOBP DBP, Mean (SD) [5]: 83.74 (14.32) mmHg
Seated AOBP SBP change from baseline (CFB), Mean (SD) [5]: −3.53 (12.49) mmHg
Seated AOBP SBP, Mean (SD) [5]: 144.21 (13.11) mmHg
Seated AOBP DBP change from baseline (CFB), Mean (SD) [6]: −4.17 (10.04) mmHg
Seated AOBP DBP, Mean (SD) [6]: 79.06 (13.07) mmHg
Seated AOBP SBP change from baseline (CFB), Mean (SD) [6]: −8.64 (16.52) mmHg
Seated AOBP DBP change from baseline (CFB), Mean (SD) [7]: −6.11 (12.05) mmHg
Seated AOBP DBP, Mean (SD) [7]: 77.11 (12.74) mmHg
Seated AOBP SBP change from baseline (CFB), Mean (SD) [7]: −11.08 (19.26) mmHg
Seated AOBP SBP, Mean (SD) [7]: 136.56 (19.58) mmHg
LSM Δ from Placebo, change from baseline in seated AOBP SBP (MMRM) [8]: −1.53 mmHg
LSM Δ with Placebo, seated AOBP DBP (MMRM) [8]: −2.12 mmHg
Modelled (MMRM) LSM (SEM) change from baseline, seated AOBP DBP [8]: −3.76 (2.02) mmHg
Modelled (MMRM) LSM (SEM) change from baseline, seated AOBP SBP [8]: −5.63 (3.16) mmHg
Seated AOBP DBP change from baseline (CFB), Mean (SD) [8]: −1.78 (13.33) mmHg
Seated AOBP DBP, Mean (SD) [8]: 81.44 (17.24) mmHg
Seated AOBP SBP change from baseline (CFB), Mean (SD) [8]: −6.86 (19.85) mmHg
Seated AOBP SBP, Mean (SD) [8]: 140.78 (22.01) mmHg
Subjects with seated AOBP SBP/DBP ≤130/80 mmHg: No [8]: 17 (73.9) n (%)
Subjects with seated AOBP SBP/DBP ≤130/80 mmHg: Yes [8]: 6 (26.1) n (%)
Difference from placebo in change in blood pressure (25 mg BID, BMI 25-30): −1.1
Difference from placebo in change in blood pressure (25 mg BID, BMI >30): −9.1
Proportion of subjects with AOBP ≤130/80 mmHg (25 mg BID, Part 1, Week 8): 43.3%
Difference from placebo in change in blood pressure (25 mg BID, Thiazide No): −4.7
